Laboratory results reported in patent US20020026053A1, “Novel 3-(substituted) -2- indolinones compounds and use thereof as inhibitors of protein kinase activity” (priority 1997, published 2002).

Target: T1, Met receptor (EGFR/Met chimeric cells, EMR) (Homo sapiens, UniProt P08581)
T1 construct: expressed in transfected cells; the other entry of the earlier key: EGFR (P00533, Epidermal growth factor receptor)
Experiment: Met Autophosphorylation Assay
Format: biochemical
Conditions: protocol P.130
How it was run: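 Met phosphorylation was measured by capture ELISA. Lysates (90 μg/100 μl, HNTG plus 1 mM PMSF) from transiently transfected EGFR/Met chimera (EMR) cells were bound for 60 min at room temperature to wells holding rabbit anti-Met (C-28) on goat anti-rabbit coat. Phosphotyrosine was the read-out.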

T1 sequence (P08581 with tags, fused parts or gaps): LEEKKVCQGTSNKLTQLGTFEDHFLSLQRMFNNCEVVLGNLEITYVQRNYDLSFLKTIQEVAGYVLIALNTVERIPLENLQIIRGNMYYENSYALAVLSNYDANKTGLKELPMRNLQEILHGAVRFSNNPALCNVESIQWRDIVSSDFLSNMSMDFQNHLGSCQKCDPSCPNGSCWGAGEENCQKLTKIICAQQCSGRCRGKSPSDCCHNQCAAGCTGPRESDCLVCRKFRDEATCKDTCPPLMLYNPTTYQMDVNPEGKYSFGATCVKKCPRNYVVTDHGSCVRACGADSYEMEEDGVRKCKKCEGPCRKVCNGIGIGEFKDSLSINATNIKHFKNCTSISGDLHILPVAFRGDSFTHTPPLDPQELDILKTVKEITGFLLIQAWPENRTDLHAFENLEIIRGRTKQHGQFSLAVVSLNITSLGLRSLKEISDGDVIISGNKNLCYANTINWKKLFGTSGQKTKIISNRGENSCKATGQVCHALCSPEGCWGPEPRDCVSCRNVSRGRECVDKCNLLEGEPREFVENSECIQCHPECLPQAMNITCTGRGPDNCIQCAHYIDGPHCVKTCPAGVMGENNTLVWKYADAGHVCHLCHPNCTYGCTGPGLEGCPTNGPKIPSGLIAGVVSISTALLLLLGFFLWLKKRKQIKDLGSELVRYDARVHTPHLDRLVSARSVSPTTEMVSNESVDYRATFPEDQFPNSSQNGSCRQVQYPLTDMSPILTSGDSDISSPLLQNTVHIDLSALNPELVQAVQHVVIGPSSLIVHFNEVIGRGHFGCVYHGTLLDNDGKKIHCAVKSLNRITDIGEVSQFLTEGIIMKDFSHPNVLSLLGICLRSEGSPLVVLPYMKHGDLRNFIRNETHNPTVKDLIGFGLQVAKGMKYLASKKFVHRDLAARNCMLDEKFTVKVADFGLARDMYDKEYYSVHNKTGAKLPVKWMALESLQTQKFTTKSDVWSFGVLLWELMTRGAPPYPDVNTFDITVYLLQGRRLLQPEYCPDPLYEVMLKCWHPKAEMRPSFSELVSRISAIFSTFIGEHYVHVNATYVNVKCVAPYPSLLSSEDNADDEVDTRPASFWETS

Structure (SMILES): Cc1ccc(C=C2C(=O)Nc3c(Br)cc(Br)c(C)c32)cc1 [10736/H05]
- Met Kinase % Inhibition (P.130): 21.1%

Structure (SMILES): Cc1c(Br)cc(Br)c2c1C(=Cc1cccc(Cl)c1)C(=O)N2 [10736/H06]
- Met Kinase % Inhibition (P.130): 27.4%
